Reference: patent publication US20250034138A1, “Compounds and Compositions as C-Kit Kinase Inhibitors” (Enanta Pharmaceuticals, Inc., priority 2023, published 2025)

The compounds below were run against T1, Recombinant human c-KIT kinase (Homo sapiens, UniProt P10721) (assay: c-KIT Kinase Chemiluminescence Assay (ADP-Glo)). Conditions: recombinant human c-KIT 30-40 nM, ATP 50 μM, polyEY substrate, ADP-Glo luminescence.
T1 construct: purchased Promega V4498
Assay type: biochemical
Description: Staurosporine (AM-2282) and Imatinib (STI571) were purchased from Selleck Chemicals LLC (Houston, TX). The c-KIT reference compound THB001 (EP-053504) was synthesized by Enanta Pharmaceuticals, Inc. (Watertown, MA). The c-KIT Kinase Enzyme System (V4498) and ADP-Glo™ Kinase Assay kit (V6930) were purchased from Promega (Madison, WI). DMSO (D2650) was purchased from Sigma-Aldrich (Burlington, MA). ECHO-650 acoustic liquid handling system (67492212) and 384-well LDV ECHO source plates (LP-0200) were purchased from Labcyte, Inc (San Jose, CA). Envision Multimode Plate Reader (2104/464466) and ProxiPlate-384 Plus White 384-shallow well microplates (6008280) were purchased from PerkinElmer (Waltham, MA).
1. c-KIT Kinase Chemiluminescence Assay:
IC50 determination. Test compounds were dispersed into a 384-well low volume while ProxiPlate microplate from a DMSO solution using an ECHO 650 acoustic dispenser to generate a 11-point, 3.162-fold dilution, concentration curve starting at 10 μM in duplicate. Kinase Reaction: The kinase assay was based on the recommended protocol by c-KIT Kinase Enzyme System from Promega. Recombinant human c-KIT kinase in 3 μL of assay buffer (40 mM Tris pH 7.5, 20 mM MgCl2, 0.1 mg/mL BSA and 50 μM DTT) was added to the test or high control wells and 3 μL of assay buffer was added to the low control wells. The microplate was centrifuged at 800 rotations per minute (rpm) for 60 s and incubated at room temperature (RT) for 30 min. Next, 2 μL of buffered ATP and polyEY substrate solution was added to all wells. The microplate was centrifuged at 800 rpm for 60 s and incubated at RT for 2 h. The final assay contained c-KIT (30-40 nM), ATP (50 μM), polyEY substrate (0.2 μg/μL), test compounds (0-10 μM) and DMSO (1.7%) in 5 μL assay buffer. ADP detection with ADP-Glo™ Kinase Assay: After the kinase reaction incubation, 5 μL of ADP-Glo™ reagent was added to all wells. The microplate was centrifuged at 800 rpm for 60 s and incubated at RT for 40 min. Ten microliter (10 μL) of Kinase Detection Reagent (Luciferin-Luciferase system) was then added to all wells. The microplate was centrifuged at 800 rpm for 60 s and incubated at RT for 60 min. Kinase activity was measured as increase in luminescence at RT in an Envision plate reader equipped with 560 nm filters and operating in endpoint mode.
Data Analysis: Endpoint chemiluminescence from high and low control wells were used to calculate normalized c-KIT activity at various concentrations of test compounds. The normalized activities were fitted to inhibitor-versus-normalized response fit in GraphPad Prism 7 to determine half-maximal inhibitory concentration (IC50) and hill coefficient values (H).
c-KIT activity (%)=100/(1+I^H/IC50^H). Where I is the inhibitor concentration and H is the Hill coefficient. IC50 ranges are reported as follows: A<100 nM; B 0.1-1 μM; C>1 μM.

T1 sequence (P10721 26-976): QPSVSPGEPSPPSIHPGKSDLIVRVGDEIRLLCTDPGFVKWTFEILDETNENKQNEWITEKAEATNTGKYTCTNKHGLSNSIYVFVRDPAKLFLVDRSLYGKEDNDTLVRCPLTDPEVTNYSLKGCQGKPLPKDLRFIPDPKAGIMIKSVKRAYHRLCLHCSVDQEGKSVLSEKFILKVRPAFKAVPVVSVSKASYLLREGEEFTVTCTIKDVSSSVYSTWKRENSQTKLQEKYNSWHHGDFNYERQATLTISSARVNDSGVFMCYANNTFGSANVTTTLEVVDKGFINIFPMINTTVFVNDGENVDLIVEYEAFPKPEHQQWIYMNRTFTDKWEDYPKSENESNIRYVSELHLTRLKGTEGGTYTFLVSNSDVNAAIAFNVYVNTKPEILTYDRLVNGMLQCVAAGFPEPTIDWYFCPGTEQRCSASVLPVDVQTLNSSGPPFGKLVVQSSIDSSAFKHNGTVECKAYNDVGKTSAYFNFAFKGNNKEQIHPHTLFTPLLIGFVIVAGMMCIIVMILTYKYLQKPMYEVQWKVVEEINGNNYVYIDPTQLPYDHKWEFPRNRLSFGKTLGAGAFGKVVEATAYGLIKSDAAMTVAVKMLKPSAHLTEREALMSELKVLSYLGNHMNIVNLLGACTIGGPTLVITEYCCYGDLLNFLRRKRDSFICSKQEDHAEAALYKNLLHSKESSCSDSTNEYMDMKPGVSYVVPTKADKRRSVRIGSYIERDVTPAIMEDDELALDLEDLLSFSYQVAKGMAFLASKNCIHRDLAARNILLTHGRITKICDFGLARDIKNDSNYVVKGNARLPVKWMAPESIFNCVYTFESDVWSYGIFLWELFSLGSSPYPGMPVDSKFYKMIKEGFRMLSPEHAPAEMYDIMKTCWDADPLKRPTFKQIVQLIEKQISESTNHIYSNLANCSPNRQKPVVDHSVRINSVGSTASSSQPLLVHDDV

Row | SMILES | IC50 [nM]
1 | Cc1ccc(-c2nnc(C3CC(F)(F)C3)s2)cc1NC(=O)c1cnc2ccccn12 [Example 1-1] | < 100
2 | Cc1ccc(-c2nnc([C@H]3C[C@@H]3F)s2)cc1NC(=O)c1cnc2ccccn12 [Example 1] | < 100
3 | Cc1ccc(-c2nnn(C3CC3)n2)cc1NC(=O)c1cnc2ccccn12 [Example 2] | 100 to 1000
4 | Cc1ccc(-c2nnn(C3CC(F)(F)C3)n2)cc1NC(=O)c1cnc2ccccn12 [Example 3] | < 100
5 | Cc1ccc(-c2nc(C3CC(F)(F)C3)cs2)cc1NC(=O)c1cnc2ccccn12 [Example 4] | < 100
6 | Cc1ccc(-c2nnc(C3CC3)n2C2CC2)cc1NC(=O)c1cnc2ccccn12 [Example 5] | > 1000
7 | Cc1ccc(-c2nc(C3CC3)nn2C)cc1NC(=O)c1cnc2ccccn12 [Example 6-1] | > 1000
8 | Cc1ccc(-c2nc3ccc(F)cn3n2)cc1NC(=O)c1cnc2ccccn12 [Example 6-2] | < 100
9 | Cc1ccc(-c2nc3ccc(Cl)cn3n2)cc1NC(=O)c1cnc2ccccn12 [Example 6-3] | < 100
10 | Cc1ccc(-c2cn3c(n2)CCCC3)cc1NC(=O)c1cnc2ccccn12 [Example 6-4] | 100 to 1000
11 | Cc1ccc(-c2cn3c(n2)CCC3)cc1NC(=O)c1cnc2ccccn12 [Example 6-5] | 100 to 1000
12 | Cc1ccc(-c2nc3cc(F)ccn3n2)cc1NC(=O)c1cnc2ccccn12 [Example 6-6] | < 100
13 | Cc1ccc(-c2nc3ccccn3n2)cc1NC(=O)c1cnc2ccccn12 [Example 6-7] | > 1000
14 | Cc1ccc(-c2nc3n(n2)[C@@H](c2ccccc2)C[C@H]3F)cc1NC(=O)c1cnc2ccccn12 [Example 6-8] | 100 to 1000
15 | Cc1ccc(-c2nc3ccc(C(F)(F)F)cn3n2)cc1NC(=O)c1cnc2ccccn12 [Example 6-9] | < 100
16 | Cc1ccc(-c2nc3cccc(C(F)(F)F)n3n2)cc1NC(=O)c1cnc2ccccn12 [Example 6-10] | 100 to 1000
17 | Cc1ccc(-c2nnc3n2CCCC3)cc1NC(=O)c1cnc2ccccn12 [Example 6-11] | > 1000
18 | Cc1ccc(-c2nc3n(n2)CCCC3)cc1NC(=O)c1cnc2ccccn12 [Example 6-12] | 100 to 1000
19 | Cc1ccc(-c2nc3n(n2)CCN(C(=O)OC(C)(C)C)C3)cc1NC(=O)c1cnc2ccccn12 [Example 6-13] | < 100
20 | Cc1ccc(-c2nc3cc(C(F)(F)F)ccn3n2)cc1NC(=O)c1cnc2ccccn12 [Example 6-14] | < 100
21 | Cc1ccc(-c2nc3cc(Cl)ccn3n2)cc1NC(=O)c1cnc2ccccn12 [Example 6-15] | < 100
22 | Cc1ccc(-c2nc3n(n2)CCNC3)cc1NC(=O)c1cnc2ccccn12 [Example 6-16] | 100 to 1000
23 | Cc1ccc(-c2nc3n(n2)CCN(C(=O)[C@H]2C[C@@H]2F)C3)cc1NC(=O)c1cnc2ccccn12 [Example 6-18] | 100 to 1000
24 | Cc1ccc(-c2nc3n(n2)CCN(C(=O)C2CC(F)(F)C2)C3)cc1NC(=O)c1cnc2ccccn12 [Example 6-19] | 100 to 1000

The compounds below were run on M-07e cells which endogenously express human c-KIT (assay: M-07e Cellular Assay (SCF-mediated cell proliferation, CellTiter Glo)). Conditions: SCF (EC90)-stimulated M-07e cell proliferation, 72 hours, CellTiter Glo, read-out: M-07e EC50.
Assay type: cell-based
Description: 2. M-07e Cellular Assay M-07e cells (Creative Bioarray, CSC-CO249) which endogenously express human c-KIT were used to evaluate the effect of compounds on stem cell factor (SCF)-mediated cell proliferation. M-07e cells were cultured in growth media (RPMI+10% FBS+1% penicillin/streptomycin+10 ng/mL GM-CSF) at 5E5-1.5E6 cells/mL, replenishing media every 3-4 days. 1.5E4 cells were seeded per well in 384 well tissue culture treated plates in 20 μL assay media (RPMI+10% FBS+1% penicillin/streptomycin) without growth factor stimulation and incubated at 37° C. in a CO2 humidity-controlled incubator. Twenty-four hours later, three-fold serially diluted test compounds in media containing SCF (at the previously determined EC90) were added to the plated M-07e cells and incubated for an additional 72 hours. Cell viability was determined by adding 25 μL CellTiter Glo (Promega) to the cells and the luminescence was measured using a Perkin Elmer Envision plate reader. The EC50 was determined using GraphPad Prism. […] EC50 ranges are reported as follows: […]

Row | SMILES | EC50 [nM]
25 | Cc1ccc(-c2nnc(C3CC(F)(F)C3)s2)cc1NC(=O)c1cnc2ccccn12 [Example 1-1] | < 100
26 | Cc1ccc(-c2nnc([C@H]3C[C@@H]3F)s2)cc1NC(=O)c1cnc2ccccn12 [Example 1] | < 100
27 | Cc1ccc(-c2nnn(C3CC3)n2)cc1NC(=O)c1cnc2ccccn12 [Example 2] | < 100
28 | Cc1ccc(-c2nnn(C3CC(F)(F)C3)n2)cc1NC(=O)c1cnc2ccccn12 [Example 3] | < 100
29 | Cc1ccc(-c2nc(C3CC(F)(F)C3)cs2)cc1NC(=O)c1cnc2ccccn12 [Example 4] | 100 to 1000
30 | Cc1ccc(-c2nnc(C3CC3)n2C2CC2)cc1NC(=O)c1cnc2ccccn12 [Example 5] | > 1000
31 | Cc1ccc(-c2nc(C3CC3)nn2C)cc1NC(=O)c1cnc2ccccn12 [Example 6-1] | 100 to 1000
32 | Cc1ccc(-c2nc3ccc(F)cn3n2)cc1NC(=O)c1cnc2ccccn12 [Example 6-2] | < 100
33 | Cc1ccc(-c2nc3ccc(Cl)cn3n2)cc1NC(=O)c1cnc2ccccn12 [Example 6-3] | < 100
34 | Cc1ccc(-c2cn3c(n2)CCCC3)cc1NC(=O)c1cnc2ccccn12 [Example 6-4] | < 100
35 | Cc1ccc(-c2cn3c(n2)CCC3)cc1NC(=O)c1cnc2ccccn12 [Example 6-5] | 100 to 1000
36 | Cc1ccc(-c2nc3cc(F)ccn3n2)cc1NC(=O)c1cnc2ccccn12 [Example 6-6] | < 100
37 | Cc1ccc(-c2nc3n(n2)[C@@H](c2ccccc2)C[C@H]3F)cc1NC(=O)c1cnc2ccccn12 [Example 6-8] | 100 to 1000
38 | Cc1ccc(-c2nc3ccc(C(F)(F)F)cn3n2)cc1NC(=O)c1cnc2ccccn12 [Example 6-9] | < 100
39 | Cc1ccc(-c2nc3cccc(C(F)(F)F)n3n2)cc1NC(=O)c1cnc2ccccn12 [Example 6-10] | 100 to 1000
40 | Cc1ccc(-c2nc3n(n2)CCCC3)cc1NC(=O)c1cnc2ccccn12 [Example 6-12] | 100 to 1000
41 | Cc1ccc(-c2nc3n(n2)CCN(C(=O)OC(C)(C)C)C3)cc1NC(=O)c1cnc2ccccn12 [Example 6-13] | 100 to 1000
42 | Cc1ccc(-c2nc3cc(C(F)(F)F)ccn3n2)cc1NC(=O)c1cnc2ccccn12 [Example 6-14] | < 100
43 | Cc1ccc(-c2nc3cc(Cl)ccn3n2)cc1NC(=O)c1cnc2ccccn12 [Example 6-15] | 100 to 1000
44 | Cc1ccc(-c2nc3n(n2)CCNC3)cc1NC(=O)c1cnc2ccccn12 [Example 6-16] | > 1000
45 | Cc1ccc(-c2nc3n(n2)CCN(C(=O)[C@H]2C[C@@H]2F)C3)cc1NC(=O)c1cnc2ccccn12 [Example 6-18] | 100 to 1000
